# Tests used:
# [1] = test system: corticosterone-treated mice; experiment: Forced Swimming test (FST), chronic administration; assay type: in vivo; details: chronic 1mg/kg ip daily
# Experimental: (§1) Three well-established mouse models of depression-like behavior have been used in the present study namely i- the long-term corticosterone treatment in the drinking water (David, Samuels et al. 2009), ii- the peripheral administration of LPS (O'Connor, Lawson et al. 2009) iii- the ApN^-/- mice (Liu, Guo et al. 2012). For chronic AdipoRon treatment, the experimental protocol was as followed: • i- Five weeks old male mice (five/cage) received corticosterone (35mg/L dissolved in tap water containing 4 g/L CD) or vehicle alone ad libitum for during 7 consecutive weeks (David, Samuels et al. 2009). Corticosterone and vehicle solutions were changed every 3 days to prevent possible degradation. […]
# (§2) All behavioral testing were conducted during the light phase (between 09:00 and 14:00 am) in compliance with the Institutional Animal Care and Use Committee of the University of Nice-Sophia Antipolis (permission number 010344.01 from the French "Ministère de l'Enseignement Supérieur et de la Recherche" granted to Dr. Joëlle Chabry). • Forced Swimming test (FST) - Mice were placed an inescapable transparent tank (20cm diameter, 30cm deep) filled with water (23°C ± 0.5) for six minutes as previously described by Porsolt et al. (1977). […] To initiate testing, mice were placed into the light side and activity was recorded for 5 minutes. […]
# [2] = target: T1, AdipoRl (Homo sapiens, UniProt Q96A54); details: Okada-Iwabu, Yamauchi et al. 2013; cited from earlier work
# T1 sequence (Q96A54 1-375): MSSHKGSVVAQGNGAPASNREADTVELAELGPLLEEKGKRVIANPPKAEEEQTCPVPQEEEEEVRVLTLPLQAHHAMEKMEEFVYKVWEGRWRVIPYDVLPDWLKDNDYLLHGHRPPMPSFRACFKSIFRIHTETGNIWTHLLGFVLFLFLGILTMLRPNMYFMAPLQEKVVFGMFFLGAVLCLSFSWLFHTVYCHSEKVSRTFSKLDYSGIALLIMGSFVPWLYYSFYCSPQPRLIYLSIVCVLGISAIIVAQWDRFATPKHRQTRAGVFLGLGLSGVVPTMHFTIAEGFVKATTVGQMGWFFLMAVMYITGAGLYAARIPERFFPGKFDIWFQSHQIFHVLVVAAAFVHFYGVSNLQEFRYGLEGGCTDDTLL
# [3] = test system: wt and depression-like mouse models; experiment: Forced Swimming test (FST), acute administration; assay type: in vivo, mice
# [4] = test system: corticosterone-treated mice; experiment: Sucrose preference test, chronic administration; assay type: in vivo; details: chronic 1mg/kg ip daily
# Experimental: as §1, §2
# [5] = vehicle-treated mice (no corticosterone)
smiles,measurement,setting,value
"O=C(COc1ccc(C(=O)c2ccccc2)cc1)NC1CCN(Cc2ccccc2)CC1 [AdipoRon, 2-(4-Benzoylphenoxy)-N-[1-(phenylmethyl)-4-piperidinyl]-acetamide]",immobility duration in the FST (resignation),[1]; corticosterone-treated mice,reversed the effect of corticosterone
same,immobility duration in the FST (resignation),[1]; [5],no significant effect
same,binding to adiponectin receptor,[2],bind
same,immobility time in the FST,"[3]; ApN-/- mice, 0.5mg/kg ip, one-hour post injection",remained inefficient
same,immobility time in the FST,"[3]; ApN-/- mice, 1mg/kg per os (gavage), one-hour before FST",reduced the immobility time
same,immobility time in the FST,"[3]; ApN-/- mice, 5mg/kg ip, one-hour post injection",decreased the immobility time
same,immobility time in the FST,"[3]; C57BL/6J wt mice, 1mg/kg ip, 1h post-injection, vs vehicle",decreased the immobility time
same,immobility time in the FST,"[3]; C57BL/6J wt mice, 1mg/kg ip, 3h post-injection, vs vehicle",no significant effect
same,immobility time in the FST,"[3]; corticosterone-treated mice, 0.5mg/kg ip, one-hour post injection",significantly reduced the immobility time
same,immobility time in the FST,"[3]; corticosterone-treated mice, 5mg/kg ip, one-hour post injection",decreased the immobility time
same,immobility time in the FST,"[3]; wt mice, 0.5mg/kg ip, one-hour post injection",significantly reduced the immobility time
same,immobility time in the FST,"[3]; wt mice, 1mg/kg per os (gavage), one-hour before FST",reduced the immobility time
same,immobility time in the FST,"[3]; wt mice, 5mg/kg ip, one-hour post injection",decreased the immobility time
same,sucrose preference (anhedonia),[4]; corticosterone-treated mice,reversed the effect of corticosterone
same,sucrose preference (anhedonia),[4]; [5],no significant effect

# From patent publication EP3431468B1, “USE OF ADIPONECTIN RECEPTOR AGONISTS IN TREATING DEPRESSION, ANXIETY AND NEUROINFLAMMATION” (CENTRE NATIONAL DE LA RECHERCHE SCIENTIFIQUE, priority 2017, dated 2019)
